Laboratory results from patent US20230116972A1, “CD38 MODULATORS AND METHODS OF USE THEREOF” (Cytokinetics, Inc., priority 2021, published 2023).

What was measured:
[1] = target: T1, human CD38 (Homo sapiens, UniProt P28907); assay: human recombinant CD38 enzyme assay (hydrolysis of NAD+); assay type: biochemical; conditions: human recombinant CD38, 0.4 nM enzyme, 62.5 μM NAD+; read-out: hCD38 BioChem IC50
T1 sequence (P28907 1-300): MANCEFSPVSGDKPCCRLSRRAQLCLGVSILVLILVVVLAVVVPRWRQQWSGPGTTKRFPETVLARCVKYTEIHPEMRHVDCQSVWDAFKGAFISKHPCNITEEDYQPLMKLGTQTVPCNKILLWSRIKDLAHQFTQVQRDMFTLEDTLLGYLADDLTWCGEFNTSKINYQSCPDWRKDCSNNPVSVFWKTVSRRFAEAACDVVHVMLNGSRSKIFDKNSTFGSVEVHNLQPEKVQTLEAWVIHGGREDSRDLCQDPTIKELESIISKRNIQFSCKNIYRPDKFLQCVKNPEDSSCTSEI
How it was run: (§1)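 Cell-free recombinant enzyme, NAD+ substrate, 60 min at RT. Stop/detect: ethanol/ADH plus semicarbazide and a CD38 inhibitor (15 min), then NaOH, then resazurin/diaphorase (15 min). Remaining NAD+ read as resorufin fluorescence, Ex/Em 540/590 nm. Inhibition fitted from dose responses.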

[2] = target: T2, mouse CD38 (Mus musculus, UniProt P56528); assay: mouse recombinant CD38 enzyme assay (hydrolysis of NAD+); assay type: biochemical; conditions: read-out: mCD38 BioChem IC50
T2 sequence (P56528 1-304): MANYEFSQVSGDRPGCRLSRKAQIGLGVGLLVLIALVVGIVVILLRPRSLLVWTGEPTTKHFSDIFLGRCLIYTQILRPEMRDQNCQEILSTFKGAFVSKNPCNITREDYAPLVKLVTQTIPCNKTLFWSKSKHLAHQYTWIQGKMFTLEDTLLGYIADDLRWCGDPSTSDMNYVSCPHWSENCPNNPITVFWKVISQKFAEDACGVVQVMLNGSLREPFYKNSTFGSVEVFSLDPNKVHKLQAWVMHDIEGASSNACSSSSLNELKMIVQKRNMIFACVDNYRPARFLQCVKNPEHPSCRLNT
How it was run: as §1

[3] = target: T3, endogenous CD38 in HL60 cells (Homo sapiens, UniProt P28907); assay: cellular CD38 assay in HL60 cells (cellular NAD levels); assay type: cell-based; conditions: all-trans retinoic acid, 24 hours, read-out: hCD38 HL60 ATRA NAD Cell Diaphorase IC50
T3 construct: endogenous in cells; host or cells: HL60 (leukemic cells, treated with all-trans retinoic acid)
T3 sequence (P28907 1-300): T1 sequence (P28907 1-300)
How it was run: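 HL60 cells (20000/well) were treated with compound in DMSO for 24 h. Cellular NAD was then measured by an enzymatic cycling mix (alcohol dehydrogenase, diaphorase, 40 uM resazurin, 10 uM FMN, 3% ethanol, Triton X-100, pH 8.4).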

SMILES	IC50 [1] [nM]	IC50 [2] [nM]	IC50 [3] [nM]
Cn1cncc1-c1nc(C(=O)NC2CC3(C2)CC(F)(F)C3)cc(C(F)(F)F)n1 [Compound 154, N-(6,6-difluorospiro[3.3]heptan-2-yl)-2-(1-methyl-1H-imidazol-5-yl)-6-(trifluoromethyl)pyrimidine-4-carboxamide]	11	1	3150
COCCO[C@H]1CC[C@H](NC(=O)c2cc(C)nc(-c3cncn3C)n2)CC1 [Compound 155, N-((1r,4r)-4-(2-methoxyethoxy)cyclohexyl)-6-methyl-2-(1-methyl-1H-imidazol-5-yl)pyrimidine-4-carboxamide]	24	1	2300
COCCO[C@H]1CC[C@H](NC(=O)c2cc(C)nc(-n3ccnc3)n2)CC1 [Compound 156, 2-(1H-imidazol-1-yl)-N-((1r,4r)-4-(2-methoxyethoxy)cyclohexyl)-6-methylpyrimidine-4-carboxamide]	30	4	2300
COCCO[C@H]1CC[C@H](NC(=O)c2cc(C(F)(F)F)nc(-n3ccnc3)n2)CC1 [Compound 157, 2-(1H-imidazol-1-yl)-N-((1r,4r)-4-(2-methoxyethoxy)cyclohexyl)-6-(trifluoromethyl)pyrimidine-4-carboxamide]	121	48	7230
CC(C)(O)c1cc(C(=O)Nc2ccc(C(F)F)nc2)nc(-n2ccnc2)n1 [Compound 158, N-(6-(difluoromethyl)pyridin-3-yl)-6-(2-hydroxypropan-2-yl)-2-(1H-imidazol-1-yl)pyrimidine-4-carboxamide]	228	185	3980
Cn1cncc1-c1nc(C(=O)Nc2ccc(C(F)F)nc2)cc(C(C)(C)O)n1 [Compound 159, N-(6-(difluoromethyl)pyridin-3-yl)-6-(2-hydroxypropan-2-yl)-2-(1-methyl-1H-imidazol-5-yl)pyrimidine-4-carboxamide]	9	5	1090
O=C(N[C@H]1CC[C@H](C(F)F)CC1)c1cc(C2CC2)nc(-n2ccnc2)n1 [Compound 161, 6-cyclopropyl-N-((1r,4r)-4-(difluoromethyl)cyclohexyl)-2-(1H-imidazol-1-yl)pyrimidine-4-carboxamide]	26	4	2450
O=C(Nc1ccc(C(F)F)nc1)c1cc(C2CC2)nc(-n2ccnc2)n1 [Compound 162, 6-cyclopropyl-N-(6-(difluoromethyl)pyridin-3-yl)-2-(1H-imidazol-1-yl)pyrimidine-4-carboxamide]	3	1	718
COc1cc(C(=O)Nc2ccc(C(F)F)nc2)nc(-c2cncs2)c1 [Compound 163, N-(6-(Difluoromethyl)pyridin-3-yl)-4-methoxy-6-(thiazol-5-yl)picolinamide]	375	82	11700
C[C@H]1CC[C@H](NC(=O)c2cc(C(F)(F)F)nc(-n3ccnc3)n2)CC1 [Compound 164, 2-(1H-imidazol-1-yl)-N-((1r,4r)-4-methylcyclohexyl)-6-(trifluoromethyl)pyrimidine-4-carboxamide]	44	11	4000
COCCO[C@H]1CC[C@H](NC(=O)c2cc(C(F)(F)F)nc(-c3cncn3C)n2)CC1 [Compound 165, N-((1r,4r)-4-(2-methoxyethoxy)cyclohexyl)-2-(1-methyl-1H-imidazol-5-yl)-6-(trifluoromethyl)pyrimidine-4-carboxamide]	19	1	2980
COc1cc(C(=O)N[C@H]2CC[C@H](C)CC2)nc(-n2ccnc2)c1 [Compound 166, 6-(1H-imidazol-1-yl)-4-methoxy-N-((1r,4r)-4-methylcyclohexyl)picolinamide]	21	2	2240
CC(C)c1cc(C(=O)N[C@H]2CC[C@H](C(F)F)CC2)nc(-n2ccnc2)n1 [Compound 168, N-((1r,4r)-4-(difluoromethyl)cyclohexyl)-2-(1H-imidazol-1-yl)-6-isopropylpyrimidine-4-carboxamide]	313	47	8650
CC(C)c1cc(C(=O)Nc2ccc(C(F)F)nc2)nc(-n2ccnc2)n1 [Compound 169, N-(6-(difluoromethyl)pyridin-3-yl)-2-(1H-imidazol-1-yl)-6-isopropylpyrimidine-4-carboxamide]	22	15	2250
CC(C)c1cc(C(=O)Nc2ccc(C(F)(F)F)nc2)nc(-n2ccnc2)n1 [Compound 170, 2-(1H-imidazol-1-yl)-6-isopropyl-N-(6-(trifluoromethyl)pyridin-3-yl)pyrimidine-4-carboxamide]	47	32	4860
CO[C@H]1CC[C@H](NC(=O)c2cc(C(C)C)nc(-c3cncn3C)n2)CC1 [Compound 171, 6-isopropyl-N-((1r,4r)-4-methoxycyclohexyl)-2-(1-methyl-1H-imidazol-5-yl)pyrimidine-4-carboxamide]	15	3	3730
CC(C)c1cc(C(=O)N[C@H]2CC[C@H](C(F)F)CC2)nc(-c2cncn2C)n1 [Compound 172, N-((1r,4r)-4-(difluoromethyl)cyclohexyl)-6-isopropyl-2-(1-methyl-1H-imidazol-5-yl)pyrimidine-4-carboxamide]	21	5	2950
CC(C)c1cc(C(=O)Nc2ccc(C(F)F)nc2)nc(-c2cncn2C)n1 [Compound 173, N-(6-(difluoromethyl)pyridin-3-yl)-6-isopropyl-2-(1-methyl-1H-imidazol-5-yl)pyrimidine-4-carboxamide]	8	2	1250
CC(C)c1cc(C(=O)Nc2ccc(C(F)(F)F)nc2)nc(-c2cncn2C)n1 [Compound 174, 6-isopropyl-2-(1-methyl-1H-imidazol-5-yl)-N-(6-(trifluoromethyl)pyridin-3-yl)pyrimidine-4-carboxamide]	8	4	1780
CC(C)(O)c1cc(C(=O)Nc2ccc(C(F)(F)F)nc2)nc(-n2ccnc2)n1 [Compound 175, 6-(2-hydroxypropan-2-yl)-2-(1H-imidazol-1-yl)-N-(6-(trifluoromethyl)pyridin-3-yl)pyrimidine-4-carboxamide]	330	335	6460
COc1cc(C(=O)Nc2ccc(C(F)F)nc2)nc(-n2ccnc2)c1 [Compound 187, N-(6-(difluoromethyl)pyridin-3-yl)-6-(1H-imidazol-1-yl)-4-methoxypicolinamide]	3.1	1.9	253
Cn1cncc1-c1cc(C(C)(C)C)nc(C(=O)Nc2ccc(C(F)F)nc2)n1 [Compound 189, 4-(tert-butyl)-N-(6-(difluoromethyl)pyridin-3-yl)-6-(1-methyl-1H-imidazol-5-yl)pyrimidine-2-carboxamide]	333	261	8510
CO[C@H]1CC[C@H](NC(=O)c2nc(C)cc(-c3cncn3C)n2)CC1 [Compound 191, N-((1r,4r)-4-methoxycyclohexyl)-4-methyl-6-(1-methyl-1H-imidazol-5-yl)pyrimidine-2-carboxamide]	35.3	4.5	3280
